The source of these data is US12678453B2, “Aerosolized formulations of HIV protease inhibitors for the treatment of airway reflux” (The Medical College of Wisconsin, Inc., priority 2020, dated 2026).

SMILES strings stand for the structures.

T1 sequence (P00791 60-385): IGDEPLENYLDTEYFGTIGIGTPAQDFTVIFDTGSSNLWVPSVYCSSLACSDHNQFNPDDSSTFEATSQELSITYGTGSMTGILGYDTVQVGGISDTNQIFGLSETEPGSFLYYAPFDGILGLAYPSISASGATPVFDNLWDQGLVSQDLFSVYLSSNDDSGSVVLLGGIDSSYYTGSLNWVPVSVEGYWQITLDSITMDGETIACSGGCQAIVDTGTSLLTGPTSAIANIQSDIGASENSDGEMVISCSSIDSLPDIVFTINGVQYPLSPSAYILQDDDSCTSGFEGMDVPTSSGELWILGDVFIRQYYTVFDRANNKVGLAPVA

This test addresses T1, porcine pepsin (Sus scrofa, UniProt P00791).
T1 construct: purchased Worthington (Lakewood, NJ)
The test is described as follows: competitive binding assay (fluorescence polarization, pepstatin-Alexa647 probe). The following applies: 100 nM pepstatin-Alexa647, 0.03U/ul pepsin, 37.5% DMSO; FIG. 3A. From the text: Fluorescent polarization assays were developed to test compound binding and inhibition of pepsin (FIG. 1). A competitive binding assay was developed using pepstatin, a known inhibitor of pepsin with subnanomolar affinity^91 (Roberts 2003). This binding assay measures the relative binding affinity but not the enzymatic inhibition of compounds. Thus, a separate peptic activity assay was developed, which uses fluorescently labelled alpha casein as substrate. Both assays are based on the principle of fluorescence polarization (FP), which holds that as the molecular size of a fluorescent species is altered through dissociation/breakdown or association/binding events, the degree of depolarization of plane polarized light changes accordingly, directly affecting the FP value.^92 (Lea 2011). In the assays used herein, millipolarization (mP) decreases as casein-Alexa647 is degraded by pepsin and increases with binding of pepsin to pepstatin-Alexa647.
Assays were performed in 20 ul volumes in 384-well black optical plates (Nunc, Roskilde, DK). Pepstatin dose response curves were used to optimize pepsin/inhibitor concentrations and assay incubation times. Dose response was performed using 0.3-1000 uM unlabeled pepstatin with 100-500 nM pepstatin-Alexa647 probe, 0.003-3U/μl porcine pepsin (Worthington, Lakewood, NJ), and 10-37% dimethyl sulfoxide (HIV protease inhibitor diluent) in 0.1M HCl, pH1+0.01% Tween-20. Reagents were combined (with pepsin added last) in 50% of the final reaction volume for mixing and immediately read on a BioTek Cytation (BioTek Instruments, Winooski, VT) with far-red FP filter cube at excitation/emission of […] for five minutes, in at least triplicate. Averaged polarization values of replicate reads were plotted against probe or labeled pepstatin concentrations in GraphPad Prism 8 (La Jolla, CA). Reagent concentrations yielding greatest dynamic range were selected for the assay. The peptic activity assay was optimized similarly using casein-Alexa647 probe in 0.1M HCl, pH1+0.01% Tween-20. Reagents were combined (adding pepsin last) and read immediately at minimal intervals (<2 minutes apart) over 30 minutes. The assay was performed in triplicate and mean polarization value was plotted over time.
HIV protease inhibitors were dissolved in DMSO. Amprenavir, ritonavir, lopinavir, saquinavir mesylate, nelfinavir mesylate hydrate, darunavir ethanolate, indinavir sulfate salt hydrate were obtained from Sigma-Aldrich. […] Half-maximal inhibitory concentration (IC50) were calculated from kinetic traces analyzed using an online tool (icekat.herokuapp.com/icekat, O1p 2019^95). Percent bound and percent activity were calculated by normalization to the measured polarization value without HIV protease inhibitor compound. […]
For `CC(C)c1nc(CN(C)C(=O)N[C@H](C(=O)N[C@@H](Cc2ccccc2)C[C@H](O)[C@H](Cc2ccccc2)NC(=O)OCc2cncs2)C(C)C)cs1` [ritonavir, 1,3-thiazol-5-ylmethyl N-[(2S,3 S,5S)-3-hydroxy-5-[[(2S)-3-methyl-2-[[methyl-[(2-propan-2-yl-1,3-thiazol-4-yl)methyl]carbamoyl]amino]butanoyl]amino]-1,6-diphenylhexan-2-yl]carbamate], the “competitive binding to pepsin” value is listed as “competitive binding to pepsin”.

With `CC(C)CN(C[C@@H](O)[C@H](Cc1ccccc1)NC(=O)O[C@H]1CCOC1)S(=O)(=O)c1ccc(N)cc1` [amprenavir, [(3S)-oxolan-3-yl] N-[(2S,3R)-4-[(4-aminophenyl)sulfonyl-(2-methylpropyl)amino]-3-hydroxy-1-phenylbutan-2-yl]carbamate], the “competitive binding to pepsin” value was “competitive binding to pepsin”. For `CC(C)(C)NC(=O)[C@@H]1C[C@@H]2CCCC[C@@H]2CN1C[C@@H](O)[C@H](Cc1ccccc1)NC(=O)[C@H](CC(N)=O)NC(=O)c1ccc2ccccc2n1` [saquinavir, (2S)—N-[(2S,3R)-4-[(3 S,4aS,8aS)-3-(tert-butylcarbamoyl)-3,4,4a,5,6,7,8,8a-octahydro-1H-isoquinolin-2-yl]-3-hydroxy-1-phenylbutan-2-yl]-2-(quinoline-2-carbonylamino)butanediamide] the value was “competitive binding to pepsin”; for `CC(C)CN(C[C@@H](O)[C@H](Cc1ccccc1)NC(=O)O[C@H]1CO[C@H]2OCC[C@H]21)S(=O)(=O)c1ccc(N)cc1` [darunavir, [(3a S,4R,6aR)-2,3,3a,4,5,6a-hexahydrofuro[2,3-b]furan-4-yl] N-[(2S,3R)-4-[(4-aminophenyl)sulfonyl-(2-methylpropyl)amino]-3-hydroxy-1-phenylbutan-2-yl]carbamate], “competitive binding to pepsin”.
